# Values quoted from earlier work as cited in doi:10.1101/2025.09.24.678446, “Exploiting Peptide Chirality and Transport to Dissect the Complex Mechanism of Action of Host Peptides on Bacteria” (bioRxiv, 2025).
# System: BacA
substance,measurement,value
bleomycin,transport by BacA,"BacA has previously been shown to transport many varieties of peptides, including bleomycin"
